US8236947B2, “Quinoline derivatives and their use as 5-HT6 ligands” (Glaxo Group Limited, priority 2002, dated 2012)
Where a name gives a salt, the structure may show the parent alone.

system: not given; assay: not given; settings: not given

SMILES	melting point
C[C@H]1CN(c2cccc3cc(S(=O)(=O)c4ccccc4)cnc23)CCN1 (as salt: hydrochloride) [Example E13, (S)-8-(3-Methyl)piperazin-1-yl-3-phenylsulfonylquinoline hydrochloride]	266 to 269 °C (dec.)

molecular target: human cloned 5-HT6 receptors (Homo sapiens, UniProt P50406); assay: affinity for the 5-HT6 receptor (procedures outlined in WO98/27081); assay type: binding; settings: not given
Sequence (P50406 whole entry): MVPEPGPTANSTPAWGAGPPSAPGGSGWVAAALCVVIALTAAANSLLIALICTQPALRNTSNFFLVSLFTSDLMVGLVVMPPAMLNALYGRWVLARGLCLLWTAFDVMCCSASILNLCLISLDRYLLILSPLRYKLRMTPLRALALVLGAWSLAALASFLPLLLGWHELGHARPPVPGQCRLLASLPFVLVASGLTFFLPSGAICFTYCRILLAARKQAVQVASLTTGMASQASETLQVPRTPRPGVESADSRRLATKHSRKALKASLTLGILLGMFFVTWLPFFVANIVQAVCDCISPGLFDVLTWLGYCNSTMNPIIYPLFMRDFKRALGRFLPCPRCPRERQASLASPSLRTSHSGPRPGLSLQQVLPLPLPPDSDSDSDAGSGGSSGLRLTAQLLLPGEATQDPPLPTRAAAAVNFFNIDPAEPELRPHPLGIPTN

SMILES	Ki [nM]
O=S(=O)(c1ccccc1)c1cnc2c(N3CCNCC3)c(Cl)ccc2c1 [Example E10, 7-Chloro-3-phenylsulfonyl-8-piperazin-1-yl-quinoline hydrochloride]	< 10

same assay, conditions: human cloned 5-HT6 receptors; read-out: pKi values at human cloned 5-HT6 receptors (converted)

SMILES	Ki [nM]
CN1CCN(c2cccc3cc(S(=O)(=O)c4ccccc4)cnc23)CC1 [Example E1, 8-(4-Methyl-piperazin-1-yl)-3-phenylsulfonylquinoline]	< 10
O=S(=O)(c1cnc2c(N3CCNCC3)cccc2c1)c1ccccc1Cl [Example E3, 3-(2-Chloro)phenylsulfonyl-8-piperazin-1-yl-quinoline hydrochloride]	< 10
O=S(=O)(c1cccc(Cl)c1)c1cnc2c(N3CCNCC3)cccc2c1 [Example E4, 3-(3-Chloro)phenylsulfonyl-8-piperazin-1-yl-quinoline hydrochloride]	< 10
O=S(=O)(c1cnc2c(N3CCNCC3)cccc2c1)c1ccccc1F [Example E5, 3-(2-Fluoro)phenylsulfonyl-8-piperazin-1-yl-quinoline hydrochloride]	< 10
O=S(=O)(c1ccc(Cl)cc1)c1cnc2c(N3CCNCC3)cccc2c1 [Example E6, 3-(4-Chloro)phenylsulfonyl-8-piperazin-1-yl-quinoline hydrochloride]	< 10
O=S(=O)(c1cccc(F)c1)c1cnc2c(N3CCNCC3)cccc2c1 [Example E7, 3-(3-Fluoro)phenylsulfonyl-8-piperazin-1-yl-quinoline hydrochloride]	< 10
O=S(=O)(c1cnc2c(N3CCNCC3)cccc2c1)c1ccc(Br)cc1OC(F)(F)F [Example E8, 3-(4-Bromo-2-trifluoromethoxy)phenylsulfonyl-8-piperazin-1-yl-quinoline hydrochloride]	< 10
O=S(=O)(c1cccc(C(F)(F)F)c1)c1cnc2c(N3CCNCC3)cccc2c1 [Example E9, 8-Piperazin-1-yl-3-(3-trifluoromethyl)phenylsulfonylquinoline hydrochloride]	< 10
Cc1cc(N2CCNCC2)c2ncc(S(=O)(=O)c3ccccc3)cc2c1 [Example E11, 6-Methyl-3-phenylsulfonyl-8-piperazin-1-yl-quinoline hydrochloride]	< 10
C[C@@H]1CN(c2cccc3cc(S(=O)(=O)c4ccccc4)cnc23)CCN1 [Example E12, (R)-8-(3-Methyl)piperazin-1-yl-3-phenylsulfonylquinoline hydrochloride]	< 10
C[C@H]1CN(c2cccc3cc(S(=O)(=O)c4ccccc4)cnc23)CCN1 [Example E13, (S)-8-(3-Methyl)piperazin-1-yl-3-phenylsulfonylquinoline hydrochloride]	< 10
O=S(=O)(c1ccccc1)c1cnc2c(N3CCCNCC3)cccc2c1 [Example E14, 8-Homopiperazin-1-yl-3-phenylsulfonylquinoline hydrochloride]	< 10
CCN1CCN(c2cccc3cc(S(=O)(=O)c4ccccc4)cnc23)CC1 [Example E17, 8-(4-Ethyl-piperazin-1-yl)-3-phenylsulfonylquinoline hydrochloride]	< 10
O=S(=O)(c1ccccc1)c1cnc2c(N3CCN4CCCC4C3)cccc2c1 (centres unmarked) [Example E37]	< 10
O=S(=O)(c1ccccc1)c1cnc2c(N3C[C@@H]4C[C@H]3CN4)cccc2c1 [Example E43, 3-Phenylsulfonyl 8-({1S, 4S}2,5-diazabicyclo[2.2.1]heptan-2-yl) quinoline hydrochloride]	< 10
